Key:
acute toxicity in mice = conditions: mouse, in vivo
Description: (§1) As far as acute toxicity is concerned, the following data are obtained: […]

learning and memory [1] = test: pole-climbing test as described by Cook and Weindley (learning and memory); type: in vivo; conditions: male rats, 100 mg/kg i.p.
learning and memory [2] = test: learning and memory tests in laboratory animals (summary statement); type: in vivo
Description: (§2) The GPE administered i.p. to 20 male mice at the dose of 100 mg/kg subjected to the electroshock test as described by Esseman in Pharmacol. Res. comm.

acute toxicity in rats = conditions: rat, in vivo
Description: as §1

[3] = system: senile cerebral alteration, of both involutive and cerebro-vascular insufficiency origin; test: clinical tests in the treatment of senile cerebral alteration (overall clinical evaluation); type: in vivo, man
Description: 20 patients (10 male and 10 female) 59 to 76 years old were treated; the overall clinical evaluation, taking into account the improvement of the neurophysiological and neurological exams carried out, of the psychometric tests and of the used neurological scale (De Renzi E., Nichelli P.: Verbal and non-verbal short-term memory impairment following hemispheric damage, Cortex, 11, 341-354, 1975; Bisiach E. et. al.: Neurologia Clinica, Ricerche di psicologia, Ed. F. Angeli, Milano, 1977; Cafarra P. et al.: Neuropsychological testing during a transient global amnesia episode and its follow-up, Acta Neurol. Scand.

learning and memory [4] = test: electroshock test as described by Esseman (learning and memory); type: in vivo; conditions: male mice, 100 mg/kg i.p.
Description: as §2

[5] = acute toxicity in rabbits; conditions: rabbit, in vivo
Description: as §1

[6] = oral route, read-out: oral dose that did not cause either death or any symptomatology
[7] = case 1, cerebral vasculopathy with mental decline
[8] = overall clinical evaluation, 20 patients, 59 to 76 years old

Which LD50 (acute toxicity in mice; im, intramuscular route) does the source give for NCCOP(=O)(O)OC[C@H](O)CO [GPE, L-α-glycerylphosphorylethanolamine] here?
Its LD50 is > 1500 mg/kg.

And the NOAEL (acute toxicity in mice; [6])?
The NOAEL was ≥ 3000 mg/kg.

What about the “ability to activate learning and memory in comparison to the untreated animals” value (learning and memory [1]) of the same compound?
Its value is “significantly shown the ability to activate learning and memory”.

And the “response to the learning and memory tests” value (learning and memory [2])?
Its value is “significantly improve the response to the learning and memory tests”.

And the LD50 (acute toxicity in rats; im, intramuscular route)?
Its LD50 is > 1500 mg/kg.

What about the NOAEL (acute toxicity in rats; [6]) of the same compound?
The NOAEL was ≥ 3000 mg/kg.

And the “tolerability (overall)” value ([3]; 20 patients, 59 to 76 years old)?
Its value is “always excellent”.

And the “Evaluation: Activity” value [3, 7]?
Its value is “good”.

And the “Evaluation: Tolerability” value [3, 7]?
Its value is “very good”.

What about the “Evaluation: Activity” value ([3]; case 2, mental decline in cerebral vasculopathic) of the same compound?
Its value is “insufficient”.

What about the “Evaluation: Activity” value ([3]; case 3, cerebral vasculopathy with mental decline) of the same compound?
The value was “very good”.

What about the “Evaluation: Activity” value ([3]; case 4, mental involution with serious cerebral atrophy) of the same compound?
The value was “very good”.

What about the “Evaluation: Activity” value ([3]; case 5, Alzheimer disease) of the same compound?
The value was “moderate”.

And the “Evaluation: Activity” value ([3]; case 6, cerebral atrophy with extrapiramidal syndrome and decline)?
Its value is “moderate”.

What about the “Evaluation: Activity” value ([3]; case 8, multifocal dementia) of the same compound?
The value was “good”.

And the “Evaluation: Activity” value ([3]; case 9, presenile Alzheimer disease)?
The value was “good”.

And the “Evaluation: Activity” value ([3]; case 10, multifocal dementia with incipient cerebral)?
Its value is “very good”.

What about the “Evaluation: Activity” value ([3]; case 11, cerebral vasculopathy with mental decline) of the same compound?
The value was “very good”.

What about the “Evaluation: Activity” value ([3]; case 12, Alzheimer disease with cerebral atrophy) of the same compound?
Its value is “good”.

What about the “Evaluation: Activity” value ([3]; case 13, cerebral vasculopathy with mental decline) of the same compound?
Its value is “good”.

What about the “Evaluation: Activity” value ([3]; case 14, vasculopathy prevailing in the vertebro-basilar) of the same compound?
Its value is “moderate”.

What about the “Evaluation: Activity” value ([3]; case 15, cerebral vasculopathy with mental decline) of the same compound?
Its value is “moderate”.

What about the “Evaluation: Activity” value ([3]; case 16, Alzheimer disease) of the same compound?
Its value is “good”.

And the “Evaluation: Activity” value ([3]; case 17, Alzheimer disease with initial cerebral atrophy)?
The value was “very good”.

What about the “Evaluation: Activity” value ([3]; case 18, Alzheimer disease) of the same compound?
The value was “very good”.

And the “Evaluation: Activity” value ([3]; case 19, cerebral vasculopathy with cerebral atrophy)?
The value was “good”.

And the “Evaluation: Activity” value ([3]; case 20, multifocal dementia)?
Its value is “good”.

And the “influence on neurophysiological parameters, psychometric tests and neurologic scales” value ([3]; man)?
Its value is “ability to influence in a likewise significant way the neurophysiological parameters, the psychometric tests and the used neurologic scales”.

And the “cases with significantly positive therapeutic effect” value [3, 8]?
Its value is 19 cases.

What about the “treatments considered to be insufficient” value [3, 8] of the same compound?
Its value is “only one”.

What about the “pharmacological activity in clinical tests” value ([3]; senile cerebral alteration and related symptomatology) of the same compound?
Its value is “confirmed in clinical tests”.

And the “ability to activate learning and memory in comparison to the untreated animals” value (learning and memory [4])?
Its value is “significantly shown the ability to activate learning and memory”.

What about the LD50 ([5]; im, intramuscular route) of the same compound?
Its LD50 is > 1000 mg/kg.

What about the NOAEL [5, 6] of the same compound?
The NOAEL was ≥ 3000 mg/kg.
